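Five compound concentrations were applied to cells in 96-well plates for 48 hours; endpoints were derived by simple linear interpolation of the resulting dose-response curve. GI50 = concentration required for 50% inhibition of growth.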 Active and inactive are the calls of the source. Rule as the data show it: active = GI50 up to about 1.1 µM and inactive = higher.
Key:
Assay in all cases: inhibition of tumour cell growth, NCI panel, 48 h
HCT-116 = tested on: HCT-116
SNB-19 = tested on: SNB-19
MDA-MB-435 = tested on: MDA-MB-435
PC-3 = tested on: PC-3
SW-620 = tested on: SW-620
MCF7 = tested on: MCF7
COLO 205 = tested on: COLO 205
NCI-H460 = tested on: NCI-H460
UO-31 = tested on: UO-31
HL-60 = tested on: HL-60
SF-268 = tested on: SF-268
RPMI-8226 = tested on: RPMI-8226
OVCAR-4 = tested on: OVCAR-4
MDA-MB-231 = tested on: MDA-MB-231
SN12C = tested on: SN12C
Malme-3M = tested on: Malme-3M
SK-MEL-2 = tested on: SK-MEL-2
OVCAR-3 = tested on: OVCAR-3
786-0 = tested on: 786-0
UACC-257 = tested on: UACC-257
DU-145 = tested on: DU-145
SR = tested on: SR
RXF 393 = tested on: RXF 393
EKVX = tested on: EKVX
UACC-62 = tested on: UACC-62
SF-539 = tested on: SF-539
SNB-75 = tested on: SNB-75
SK-MEL-5 = tested on: SK-MEL-5
A549 = tested on: A549
HCT-15 = tested on: HCT-15
OVCAR-8 = tested on: OVCAR-8
Hs-578T = tested on: Hs-578T
OVCAR-5 = tested on: OVCAR-5
K562 = tested on: K562
NCI-H522 = tested on: NCI-H522
BT-549 = tested on: BT-549
HT-29 = tested on: HT-29
TK-10 = tested on: TK-10
T47D = tested on: T47D
A498 = tested on: A498
NCI-H23 = tested on: NCI-H23
U-251 = tested on: U-251
HCC 2998 = tested on: HCC 2998
SK-MEL-28 = tested on: SK-MEL-28
MDA-N = tested on: MDA-N
IGROV-1 = tested on: IGROV-1
ACHN = tested on: ACHN
LOX IMVI = tested on: LOX IMVI
NCI/ADR-RES = tested on: NCI/ADR-RES
CAKI-1 = tested on: CAKI-1
SK-OV-3 = tested on: SK-OV-3
KM12 = tested on: KM12
MOLT-4 = tested on: MOLT-4
SF-295 = tested on: SF-295
CCRF-CEM = tested on: CCRF-CEM
HOP-92 = tested on: HOP-92
NCI-H226 = tested on: NCI-H226
M14 = tested on: M14
HOP-62 = tested on: HOP-62

Cc1ccc(N2C(=O)CC(=O)N(NC(=O)C(C)Oc3ccccc3C)C2=S)cc1 (stereo not drawn)
GI50 (HCT-116): > 100 µM (inactive)
GI50 (SNB-19): > 100 µM (inactive)
GI50 (MDA-MB-435): > 100 µM (inactive)
GI50 (PC-3): > 100 µM (inactive)
GI50 (SW-620): > 100 µM (inactive)
GI50 (MCF7): > 100 µM (inactive)
GI50 (COLO 205): > 100 µM (inactive)
GI50 (NCI-H460): > 100 µM (inactive)
GI50 (UO-31): > 100 µM (inactive)
GI50 (HL-60): > 100 µM (inactive)
GI50 (SF-268): > 100 µM (inactive)
GI50 (RPMI-8226): > 100 µM (inactive)
GI50 (OVCAR-4): > 100 µM (inactive)
GI50 (MDA-MB-231): > 100 µM (inactive)
GI50 (SN12C): > 100 µM (inactive)
GI50 (Malme-3M): > 100 µM (inactive)
GI50 (SK-MEL-2): > 100 µM (inactive)
GI50 (OVCAR-3): > 100 µM (inactive)
GI50 (786-0): > 100 µM (inactive)
GI50 (UACC-257): > 100 µM (inactive)
GI50 (DU-145): > 100 µM (inactive)
GI50 (SR): 57.1 µM (inactive)
GI50 (RXF 393): > 100 µM (inactive)
GI50 (EKVX): > 100 µM (inactive)
GI50 (UACC-62): > 100 µM (inactive)
GI50 (SF-539): > 100 µM (inactive)
GI50 (SNB-75): > 100 µM (inactive)
GI50 (SK-MEL-5): > 100 µM (inactive)
GI50 (A549): > 100 µM (inactive)
GI50 (HCT-15): > 100 µM
GI50 (OVCAR-8): > 100 µM (inactive)
GI50 (Hs-578T): > 100 µM (inactive)
GI50 (OVCAR-5): > 100 µM (inactive)
GI50 (K562): 65.9 µM (inactive)
GI50 (NCI-H522): > 100 µM (inactive)
GI50 (BT-549): > 100 µM (inactive)
GI50 (HT-29): > 100 µM (inactive)
GI50 (TK-10): > 100 µM (inactive)
GI50 (T47D): > 100 µM (inactive)
GI50 (A498): > 100 µM (inactive)
GI50 (NCI-H23): > 100 µM (inactive)
GI50 (U-251): > 100 µM (inactive)
GI50 (HCC 2998): > 100 µM (inactive)
GI50 (SK-MEL-28): > 100 µM (inactive)
GI50 (MDA-N): 94.8 µM (inactive)
GI50 (IGROV-1): > 100 µM (inactive)
GI50 (ACHN): > 100 µM (inactive)
GI50 (LOX IMVI): 70.6 µM (inactive)
GI50 (NCI/ADR-RES): > 100 µM (inactive)
GI50 (CAKI-1): > 100 µM (inactive)
GI50 (SK-OV-3): > 100 µM (inactive)
GI50 (KM12): > 100 µM (inactive)
GI50 (MOLT-4): 48 µM (inactive)
GI50 (SF-295): > 100 µM (inactive)
GI50 (CCRF-CEM): 1.6 µM (inactive)
GI50 (HOP-92): > 100 µM (inactive)
GI50 (NCI-H226): > 100 µM (inactive)
GI50 (M14): > 100 µM (inactive)
GI50 (HOP-62): > 100 µM (inactive)

CC1CCC2(C(=O)O)CCC3(C)C(=CCC4C5(C)CC(O)C(O)C(C)(CO)C5C(O)CC43C)C2C1C (stereo not drawn)
GI50 (HCT-116): 5.65 µM (inactive)
GI50 (SNB-19): 22.7 µM (inactive)
GI50 (MDA-MB-435): 45.6 µM (inactive)
GI50 (PC-3): 83.6 µM (inactive)
GI50 (SW-620): > 100 µM (inactive)
GI50 (MCF7): 41.5 µM (inactive)
GI50 (COLO 205): 50 µM (inactive)
GI50 (NCI-H460): > 100 µM (inactive)
GI50 (UO-31): > 100 µM (inactive)
GI50 (HL-60): 20.2 µM (inactive)
GI50 (SF-268): 28.5 µM (inactive)
GI50 (RPMI-8226): 33.4 µM (inactive)
GI50 (OVCAR-4): > 100 µM (inactive)
GI50 (MDA-MB-231): 39.9 µM (inactive)
GI50 (SN12C): 2.12 µM (inactive)
GI50 (Malme-3M): 47.5 µM (inactive)
GI50 (SK-MEL-2): 19.4 µM (inactive)
GI50 (OVCAR-3): 24.1 µM (inactive)
GI50 (786-0): 3.29 µM (inactive)
GI50 (UACC-257): 98.4 µM (inactive)
GI50 (DU-145): > 100 µM (inactive)
GI50 (SR): 22.8 µM (inactive)
GI50 (RXF 393): 31.3 µM (inactive)
GI50 (EKVX): > 89.3 µM (inactive)
GI50 (UACC-62): 21.3 µM (inactive)
GI50 (SF-539): 39 µM (inactive)
GI50 (SNB-75): 28.1 µM (inactive)
GI50 (SK-MEL-5): 41.8 µM (inactive)
GI50 (A549): > 100 µM (inactive)
GI50 (HCT-15): > 100 µM
GI50 (OVCAR-8): 21.1 µM (inactive)
GI50 (Hs-578T): 19.4 µM (inactive)
GI50 (OVCAR-5): > 100 µM (inactive)
GI50 (K562): 41.1 µM (inactive)
GI50 (NCI-H522): 17.5 µM (inactive)
GI50 (BT-549): 31.7 µM (inactive)
GI50 (HT-29): > 88.5 µM (inactive)
GI50 (TK-10): > 100 µM (inactive)
GI50 (T47D): 37.4 µM (inactive)
GI50 (A498): 24.3 µM (inactive)
GI50 (NCI-H23): 65.8 µM (inactive)
GI50 (U-251): 21.6 µM (inactive)
GI50 (HCC 2998): 35.9 µM (inactive)
GI50 (SK-MEL-28): 30.8 µM (inactive)
GI50 (MDA-N): 11.1 µM (inactive)
GI50 (IGROV-1): 19.2 µM (inactive)
GI50 (ACHN): > 100 µM (inactive)
GI50 (LOX IMVI): 20.5 µM (inactive)
GI50 (NCI/ADR-RES): > 100 µM (inactive)
GI50 (CAKI-1): > 100 µM (inactive)
GI50 (SK-OV-3): > 100 µM (inactive)
GI50 (KM12): 43.3 µM (inactive)
GI50 (MOLT-4): 58.2 µM (inactive)
GI50 (SF-295): 74.5 µM (inactive)
GI50 (CCRF-CEM): 19 µM (inactive)
GI50 (HOP-92): 20.8 µM (inactive)
GI50 (NCI-H226): > 79.6 µM (inactive)
GI50 (M14): > 100 µM (inactive)
GI50 (HOP-62): 45.4 µM (inactive)

Reference: ChEMBL document CHEMBL1201862, “PubChem BioAssay data set” (2004)
